The target in assay [1] is SMARCA2 (Homo sapiens, UniProt P51531). Briefly: HiBiT assay for protein degradation, Hela SMARCA2-HiBiT cells (A series).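 For SMARC A2 Hela HiBit Dmax (%): 24 h compound treatment.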 The assay is classed as cell-based. Details: Hela cells were genetically modified via CRISPR/Cas9 to fuse HiBiT to the carboxy terminus of SMARCA2; host or cells: HeLa (CRISPR/Cas9 HiBiT knock-in). As to conditions: for DC50: read-out: SMARC A2 Hela HiBit DC50; for Dmax: read-out: SMARC A2 Hela HiBit Dmax (%). Put shortly:
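SMARCA2 degradation was measured in HeLa cells whose endogenous SMARCA2 carries a carboxy-terminal HiBiT tag introduced by CRISPR/Cas9 (Promega CS302365). Cells were maintained in DMEM with FBS and penicillin-streptomycin. SMARCA2 levels were read at the end of the experiment by Nano-Glo® HiBiT lytic luminescence (Promega N3050) and analyzed in GraphPad Prism.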
On the technique in general: The HiBiT peptide binds its large partner to form an active luciferase.

Assay [2] has as its target SMARCA4 (Homo sapiens, UniProt P51532). Briefly: HiBiT assay for protein degradation, Hela SMARCA4-HiBiT cells (A series). The assay is classed as cell-based. The conditions noted are these: Hela SMARCA4-HiBiT cells, 24 hours treatment; for DC50: read-out: SMARC A4 Hela HiBit DC50. Set-up: fuse HiBiT to the carboxy terminus of SMARCA2 (Promega CS302365) or SMARCA4 (Promega CS3023225); host or cells: HeLa (CRISPR/Cas9 HiBiT knock-in). Put shortly: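 SMARCA4 degradation was measured in HeLa cells in which HiBiT had been knocked into the SMARCA4 carboxy terminus via CRISPR/Cas9 (Promega CS3023225). Cells were maintained in DMEM with FBS and penicillin-streptomycin. At the end of treatment, SMARCA4 levels were read by lytic HiBiT luminescence (Nano-Glo®, Promega N3050), and data were analyzed with GraphPad Prism.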

The mark [3] stands for this setting: Hela SMARCA2-HiBiT cells, 24 hours treatment.
Where [4] appears, read: read-out: SMARC A4 Hela HiBit Dmax(%).
[5] abbreviates: read-out: SMARC A4 Hela HiBit Dmax.

SMILES strings stand for the structures. Like-named read-outs stand apart in the source and are kept apart here.

SMARCA4, sequence (P51532 whole entry): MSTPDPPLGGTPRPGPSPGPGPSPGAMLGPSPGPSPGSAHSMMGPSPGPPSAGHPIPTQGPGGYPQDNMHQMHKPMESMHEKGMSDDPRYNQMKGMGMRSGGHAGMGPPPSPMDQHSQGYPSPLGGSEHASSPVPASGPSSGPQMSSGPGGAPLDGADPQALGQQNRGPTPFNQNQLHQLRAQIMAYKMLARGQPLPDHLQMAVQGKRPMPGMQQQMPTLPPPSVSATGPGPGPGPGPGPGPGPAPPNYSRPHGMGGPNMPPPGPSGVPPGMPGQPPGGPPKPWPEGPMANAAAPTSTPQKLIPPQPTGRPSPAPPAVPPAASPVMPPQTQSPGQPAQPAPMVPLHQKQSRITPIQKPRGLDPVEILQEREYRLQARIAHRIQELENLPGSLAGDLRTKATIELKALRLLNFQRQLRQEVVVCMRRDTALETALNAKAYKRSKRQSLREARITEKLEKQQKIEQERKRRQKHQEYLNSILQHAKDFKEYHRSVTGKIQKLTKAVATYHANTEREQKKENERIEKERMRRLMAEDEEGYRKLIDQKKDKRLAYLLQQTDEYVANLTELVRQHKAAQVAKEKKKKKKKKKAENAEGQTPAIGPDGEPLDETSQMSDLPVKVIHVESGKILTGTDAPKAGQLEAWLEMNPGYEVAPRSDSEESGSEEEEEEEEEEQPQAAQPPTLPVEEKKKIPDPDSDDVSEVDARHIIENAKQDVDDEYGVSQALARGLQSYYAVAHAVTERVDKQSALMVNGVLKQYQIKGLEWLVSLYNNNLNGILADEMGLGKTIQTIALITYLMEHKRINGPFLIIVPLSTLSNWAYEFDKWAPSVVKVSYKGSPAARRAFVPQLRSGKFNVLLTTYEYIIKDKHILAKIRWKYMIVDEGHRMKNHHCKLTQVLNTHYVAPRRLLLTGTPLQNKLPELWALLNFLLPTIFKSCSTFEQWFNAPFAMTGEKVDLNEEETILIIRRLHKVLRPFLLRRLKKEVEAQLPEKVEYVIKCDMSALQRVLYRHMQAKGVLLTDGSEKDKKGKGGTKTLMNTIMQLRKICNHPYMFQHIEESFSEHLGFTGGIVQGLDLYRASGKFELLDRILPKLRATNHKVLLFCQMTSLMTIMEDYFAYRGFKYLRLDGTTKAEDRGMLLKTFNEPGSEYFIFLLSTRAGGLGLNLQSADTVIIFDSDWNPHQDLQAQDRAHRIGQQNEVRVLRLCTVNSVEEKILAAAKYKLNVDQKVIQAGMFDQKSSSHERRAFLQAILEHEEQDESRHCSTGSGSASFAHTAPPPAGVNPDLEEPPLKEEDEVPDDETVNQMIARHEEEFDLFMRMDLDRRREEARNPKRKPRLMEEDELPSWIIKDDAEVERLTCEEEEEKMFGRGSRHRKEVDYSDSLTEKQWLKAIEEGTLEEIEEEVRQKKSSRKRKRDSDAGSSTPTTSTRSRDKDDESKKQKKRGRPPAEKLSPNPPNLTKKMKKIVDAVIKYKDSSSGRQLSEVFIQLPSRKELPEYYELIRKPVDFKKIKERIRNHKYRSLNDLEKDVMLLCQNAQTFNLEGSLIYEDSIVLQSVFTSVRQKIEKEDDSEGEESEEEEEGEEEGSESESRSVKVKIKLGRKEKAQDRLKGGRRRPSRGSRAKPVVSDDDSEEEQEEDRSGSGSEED
SMARCA2, sequence (P51531 whole entry): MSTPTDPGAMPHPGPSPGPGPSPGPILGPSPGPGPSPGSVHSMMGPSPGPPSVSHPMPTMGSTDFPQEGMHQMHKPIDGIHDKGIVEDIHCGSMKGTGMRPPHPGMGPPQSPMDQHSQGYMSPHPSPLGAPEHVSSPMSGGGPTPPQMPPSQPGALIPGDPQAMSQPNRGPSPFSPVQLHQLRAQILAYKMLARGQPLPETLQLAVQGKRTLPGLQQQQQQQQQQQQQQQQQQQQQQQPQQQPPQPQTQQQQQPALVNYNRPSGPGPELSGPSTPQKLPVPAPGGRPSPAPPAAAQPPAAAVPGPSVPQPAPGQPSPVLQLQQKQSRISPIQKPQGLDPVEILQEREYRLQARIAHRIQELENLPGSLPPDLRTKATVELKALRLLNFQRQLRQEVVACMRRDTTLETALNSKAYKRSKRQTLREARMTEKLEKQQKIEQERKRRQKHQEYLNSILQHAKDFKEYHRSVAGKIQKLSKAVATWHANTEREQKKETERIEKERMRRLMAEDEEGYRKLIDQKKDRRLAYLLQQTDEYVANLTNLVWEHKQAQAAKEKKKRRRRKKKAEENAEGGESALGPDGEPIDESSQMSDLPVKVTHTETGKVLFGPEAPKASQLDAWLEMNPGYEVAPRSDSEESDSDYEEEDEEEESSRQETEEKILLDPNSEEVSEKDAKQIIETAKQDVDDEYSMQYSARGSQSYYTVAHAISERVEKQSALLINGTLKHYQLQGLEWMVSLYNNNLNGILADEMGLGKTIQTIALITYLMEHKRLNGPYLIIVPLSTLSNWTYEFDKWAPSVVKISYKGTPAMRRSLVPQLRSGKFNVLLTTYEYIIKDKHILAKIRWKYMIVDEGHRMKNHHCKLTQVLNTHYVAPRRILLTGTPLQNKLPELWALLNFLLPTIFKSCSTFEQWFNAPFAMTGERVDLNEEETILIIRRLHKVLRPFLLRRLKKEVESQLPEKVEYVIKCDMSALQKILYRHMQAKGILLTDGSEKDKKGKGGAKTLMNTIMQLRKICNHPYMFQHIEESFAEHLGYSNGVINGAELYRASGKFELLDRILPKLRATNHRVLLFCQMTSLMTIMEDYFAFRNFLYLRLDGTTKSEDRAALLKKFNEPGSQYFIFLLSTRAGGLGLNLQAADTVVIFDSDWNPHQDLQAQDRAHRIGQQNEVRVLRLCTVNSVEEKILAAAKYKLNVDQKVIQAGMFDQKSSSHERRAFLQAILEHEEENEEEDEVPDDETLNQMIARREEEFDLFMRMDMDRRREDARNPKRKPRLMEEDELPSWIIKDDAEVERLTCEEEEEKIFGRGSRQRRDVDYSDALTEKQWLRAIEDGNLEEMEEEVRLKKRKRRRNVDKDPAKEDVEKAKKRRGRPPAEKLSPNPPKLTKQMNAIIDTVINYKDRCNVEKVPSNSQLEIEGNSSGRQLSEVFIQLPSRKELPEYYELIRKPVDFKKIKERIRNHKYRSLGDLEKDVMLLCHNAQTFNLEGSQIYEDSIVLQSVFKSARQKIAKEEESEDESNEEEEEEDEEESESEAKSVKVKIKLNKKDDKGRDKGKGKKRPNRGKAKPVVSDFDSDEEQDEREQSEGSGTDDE

For the compound `Cc1ncsc1-c1ccc(CNC(=O)[C@@H]2C[C@@H](O)CN2C(=O)[C@@H](n2cc([C@H]3CC[C@H](CN4CCC(c5ccc6c(c5)-n5c(nc(=O)c7c(Br)cccc75)C65CCCCC5)CC4)CC3)nn2)C(C)(C)C)cc1` [Compound A67, (2S,4R)-1-((S)-2-(4-((1r,4S)-4-((4-(4′-bromo-5′-oxo-5′H-spiro[cyclohexane-1,7′-indolo[1,2-a]quinazolin]-10′-yl)piperidin-1-yl)methyl)cyclohexyl)-1H-1,2,3-triazol-1-yl)-3,3-dimethylbutanoyl)-4-hydroxy-N-(4-(4-methylthiazol-5-yl)benzyl)pyrrolidine-2-carboxamide], the DC50 in assay [1] (setting [3]) and in assay [2] was < 100 nM throughout. Moreover, the Dmax in assay [1] (setting [3]) is > 90%; in assay [2] (setting [4]) it was 70 to 90%.

With `C[C@H](NC(=O)[C@@H]1C[C@@H](O)CN1C(=O)[C@@H](n1cc([C@H]2CC[C@H](CN3CCC(c4ccc5c(c4)-n4c(nc(=O)c6c(Br)cccc64)C54CCCCC4)CC3)CC2)nn1)C(C)(C)C)c1ccc(Cl)cc1` [Compound A68, (2S,4R)-1-((S)-2-(4-((1r,4S)-4-((4-(4′-bromo-5′-oxo-5′H-spiro[cyclohexane-1,7′-indolo[1,2-a]quinazolin]-10′-yl)piperidin-1-yl)methyl)cyclohexyl)-1H-1,2,3-triazol-1-yl)-3,3-dimethylbutanoyl)-N—((S)-1-(4-chlorophenyl)ethyl)-4-hydroxypyrrolidine-2-carboxamide], in assay [1] (HeLa), the Dmax is > 90%. Also, the DC50 in assay [1] (setting [3]) is < 100 nM; in assay [2], > 1000 nM.

As to `Cc1ncsc1-c1ccc([C@H](CN2CC(C)(O)C2)NC(=O)[C@@H]2C[C@@H](O)CN2C(=O)[C@@H](n2cc([C@H]3CC[C@H](CN4CCC(c5ccc6c(c5)-n5c(nc(=O)c7c(Cl)cccc75)C65CCCCC5)CC4)CC3)nn2)C(C)(C)C)cc1` [Compound A71, (2S,4R)-1-((S)-2-(4-((1r,4S)-4-((4-(4′-chloro-5′-oxo-5′H-spiro[cyclohexane-1,7′-indolo[1,2-a]quinazolin]-10′-yl)piperidin-1-yl)methyl)cyclohexyl)-1H-1,2,3-triazol-1-yl)-3,3-dimethylbutanoyl)-4-hydroxy-N—((R)-2-(3-hydroxy-3-methylazetidin-1-yl)-1-(4-(4-methylthiazol-5-yl)phenyl)ethyl)pyrrolidine-2-carboxamide], the DC50 in assay [1] (setting [3]) was < 100 nM; in assay [2] it was > 1000 nM. Besides, the Dmax is > 90% in assay [1] (setting [3]) and 50 to 69% in assay [2] (setting [4]).

As for `Cc1ncsc1-c1ccc([C@H](CN2CCS(=O)(=O)CC2)NC(=O)[C@@H]2C[C@@H](O)CN2C(=O)[C@@H](n2cc([C@H]3CC[C@H](CN4CCC(c5ccc6c(c5)-n5c(nc(=O)c7c(Cl)cccc75)C65CCCCC5)CC4)CC3)nn2)C(C)(C)C)cc1` [Compound A72, (2S,4R)-1-((S)-2-(4-((1r,4S)-4-((4-(4′-chloro-5′-oxo-5′H-spiro[cyclohexane-1,7′-indolo[1,2-a]quinazolin]-10′-yl)piperidin-1-yl)methyl)cyclohexyl)-1H-1,2,3-triazol-1-yl)-3,3-dimethylbutanoyl)-N—((R)-2-(1,1-dioxidothiomorpholino)-1-(4-(4-methylthiazol-5-yl)phenyl)ethyl)-4-hydroxypyrrolidine-2-carboxamide], the DC50 in assay [1] (setting [3]) is < 100 nM; in assay [2], > 1000 nM. Further, the Dmax in assay [1] (setting [3]) was > 90%; in assay [2] (setting [4]), < 50%.

Regarding `Cc1ncsc1-c1ccc([C@H](CN2CCC(O)CC2)NC(=O)[C@@H]2C[C@@H](O)CN2C(=O)[C@@H](n2cc([C@H]3CC[C@H](CN4CCC(c5ccc6c(c5)-n5c(nc(=O)c7c(Cl)cccc75)C65CCCCC5)CC4)CC3)nn2)C(C)(C)C)cc1` [Compound A73, (2S,4R)-1-((S)-2-(4-((1r,4S)-4-((4-(4′-chloro-5′-oxo-5′H-spiro[cyclohexane-1,7′-indolo[1,2-a]quinazolin]-10′-yl)piperidin-1-yl)methyl)cyclohexyl)-1H-1,2,3-triazol-1-yl)-3,3-dimethylbutanoyl)-4-hydroxy-N—((R)-2-(4-hydroxypiperidin-1-yl)-1-(4-(4-methylthiazol-5-yl)phenyl)ethyl)pyrrolidine-2-carboxamide], the DC50 in assay [1] (setting [3]) was < 100 nM; in assay [2] it was > 1000 nM. The Dmax in assay [1] (setting [3]) was > 90%; in assay [2] (setting [4]), 50 to 69%.

For `Cc1ncsc1-c1ccc([C@H](CN2CC(C)(F)C2)NC(=O)[C@@H]2C[C@@H](O)CN2C(=O)[C@@H](n2cc([C@H]3CC[C@H](CN4CCC(c5ccc6c(c5)-n5c(nc(=O)c7c(Cl)cccc75)C65CCCCC5)CC4)CC3)nn2)C(C)(C)C)cc1` [Compound A74, (2S,4R)-1-((S)-2-(4-((1r,4S)-4-((4-(4′-chloro-5′-oxo-5′H-spiro[cyclohexane-1,7′-indolo[1,2-a]quinazolin]-10′-yl)piperidin-1-yl)methyl)cyclohexyl)-1H-1,2,3-triazol-1-yl)-3,3-dimethylbutanoyl)-N—((R)-2-(3-fluoro-3-methylazetidin-1-yl)-1-(4-(4-methylthiazol-5-yl)phenyl)ethyl)-4-hydroxypyrrolidine-2-carboxamide], the DC50 in assay [1] (setting [3]) was < 100 nM; in assay [2], > 1000 nM. The Dmax in assay [1] (setting [3]) was > 90%; in assay [2] (setting [4]) it was 50 to 69%.

For `Cc1ncsc1-c1ccc([C@H](CN2CCC(F)(F)CC2)NC(=O)[C@@H]2C[C@@H](O)CN2C(=O)[C@@H](n2cc([C@H]3CC[C@H](CN4CCC(c5ccc6c(c5)-n5c(nc(=O)c7c(Cl)cccc75)C65CCCCC5)CC4)CC3)nn2)C(C)(C)C)cc1` [Compound A75, (2S,4R)-1-((S)-2-(4-((1r,4S)-4-((4-(4′-chloro-5′-oxo-5′H-spiro[cyclohexane-1,7′-indolo[1,2-a]quinazolin]-10′-yl)piperidin-1-yl)methyl)cyclohexyl)-1H-1,2,3-triazol-1-yl)-3,3-dimethylbutanoyl)-N—((R)-2-(4,4-difluoropiperidin-1-yl)-1-(4-(4-methylthiazol-5-yl)phenyl)ethyl)-4-hydroxypyrrolidine-2-carboxamide], the DC50 in assay [1] (setting [3]) is < 100 nM; in assay [2], > 1000 nM. Besides, the Dmax was > 90% in assay [1] (setting [3]) and < 50% in assay [2] (setting [4]).

As for `Cc1ncsc1-c1ccc([C@H](C)NC(=O)[C@@H]2C[C@@H](O)CN2C(=O)[C@@H](n2cc([C@H]3CC[C@H](CN4CCC(c5cnc6c(c5)-n5c(nc(=O)c7c(Br)cccc75)C65CCCCC5)CC4)CC3)nn2)C(C)(C)C)cc1` [Compound A76, (2S,4R)-1-((S)-2-(4-((1r,4S)-4-((4-(4′-bromo-5′-oxo-5′H-spiro[cyclohexane-1,7′-pyrido[2′,3′: 4,5]pyrrolo[1,2-a]quinazolin]-10′-yl)piperidin-1-yl)methyl)cyclohexyl)-1H-1,2,3-triazol-1-yl)-3,3-dimethylbutanoyl)-4-hydroxy-N—((S)-1-(4-(4-methylthiazol-5-yl)phenyl)ethyl)pyrrolidine-2-carboxamide], the DC50 in assay [1] (setting [3]) is < 10 nM; in assay [2], > 1000 nM. The Dmax in assay [1] (setting [3]) is > 90%; in assay [2] (setting [5]), < 50%.

Turning to `Cc1ncsc1-c1ccc([C@H](C)NC(=O)[C@@H]2C[C@@H](O)CN2C(=O)[C@@H](n2cc([C@H]3CC[C@H](CN4CCC(c5ccc6c(n5)-n5c(nc(=O)c7c(Cl)cccc75)C65CCCCC5)CC4)CC3)nn2)C(C)(C)C)cc1` [Compound A78, (2S,4R)-1-((S)-2-(4-((1r,4S)-4-((4-(4′-chloro-5′-oxo-5′H-spiro[cyclohexane-1,7′-pyrido[3′,2′: 4,5]pyrrolo[1,2-a]quinazolin]-10′-yl)piperidin-1-yl)methyl)cyclohexyl)-1H-1,2,3-triazol-1-yl)-3,3-dimethylbutanoyl)-4-hydroxy-N—((S)-1-(4-(4-methylthiazol-5-yl)phenyl)ethyl)pyrrolidine-2-carboxamide], the Dmax in assay [1] (HeLa) was 70 to 90%. Also, the DC50 was 10 to 100 nM in assay [1] (setting [3]) and > 1000 nM in assay [2].

For `Cc1ncsc1-c1ccc([C@H](CN2CCC(C(F)(F)F)CC2)NC(=O)[C@@H]2C[C@@H](O)CN2C(=O)[C@@H](n2cc([C@H]3CC[C@H](CN4CCC(c5ccc6c(c5)-n5c(nc(=O)c7c(Cl)cccc75)C65CCCCC5)CC4)CC3)nn2)C(C)(C)C)cc1` [Compound A83, (2S,4R)-1-((S)-2-(4-((1r,4S)-4-((4-(4′-chloro-5′-oxo-5′H-spiro[cyclohexane-1,7′-indolo[1,2-a]quinazolin]-10′-yl)piperidin-1-yl)methyl)cyclohexyl)-1H-1,2,3-triazol-1-yl)-3,3-dimethylbutanoyl)-4-hydroxy-N-(®-1-(4-(4-methylthiazol-5-yl)phenyl)-2-(4-(trifluoromethyl)piperidin-1-yl)ethyl)pyrrolidine-2-carboxamide], the results for the DC50 in assay [1] (setting [3]) and in assay [2] were < 10 nM and > 1000 nM, respectively. The Dmax in assay [1] (setting [3]) was > 90%; in assay [2] (setting [5]), 50 to 69%.

A word on the DC50: it is the concentration giving 50% degradation. The term Dmax denotes the largest share of the target that was removed.
